According to doi:10.1101/2023.07.11.548539v1, “A side-by-side comparison of peptide-delivered antisense antibiotics employing different nucleotide mimics” (bioRxiv, 2023):
Oligonucleotides are written 5' to 3', each unit as a sugar letter and its base; * is a phosphorothioate linkage, no mark a phosphodiester; rarer units and linkages stand in square brackets, end groups in braces. Plain capitals give the bases only. d = 2'-deoxy (DNA)

How the values were obtained:
[1] = test system: AcpP::3xFLAG fusion protein; assay: Western blot of intracellular AcpP protein levels; assay type: cell-based, Salmonella SL1344 AcpP::3xFLAG; design: key to AcpP protein reduction: -: Effect strength is represented by additional (+) signs.; Effect strength is represented by additional (+) signs.; ++: Effect strength is represented by additional (+) signs.; +++: Effect strength is represented by additional (+) signs; conditions: for AcpP protein reduction: summary grade, KFF-ASO treatment (Figure 9); for AcpP protein level (in words): 5 µM KFF-ASO conjugate, 30, 60, 120, 240 min for PNA and PMO, 120 min for all other ASOs
Experimental: Salmonella wild type (WT) and SL1344 AcpP::3xFLAG (chromosmal fusion of full length acpP to 3XFLAG-tag as described earlier([47]); internal strain number JVS-12398) were grown overnight in non-cation adjusted MHB. Bacterial cultures were diluted 1:100, grown to OD600 0.5 and subsequently diluted to approximately 10^6 cfu/ml in MHB. Then, 1.9 ml of each diluted bacterial solution was transferred into 5 ml low-binding tubes, pre-incubated at 37 °C for 10 min and treated with 100 µl of ASOs to adjust a final concentration of 5 µM. Water was added as negative control. The treatment with PNA and PMO was performed with aeration at 37 °C and 220 rpm shaking for 30, 60, 120 and 240 minutes while for all other ASOs, they were treated for 120 min only. Subsequently, the cells were collected by centrifugation at 4 °C and 16,000 ×g for 5 min, resuspended in 1× Protein Loading Buffer (62.6 mM Tris–HCl pH 6.8, 2 % SDS, 0.1 mg/ml bromophenol blue, 15.4 mg/ml DTT, 10 % glycerol) and denatured at 95 °C for 10 min.
For detection of AcpP::3xFLAG protein levels, samples were separated on an 12% SDS-PAA gel and transferred onto a Nitrocellulose membrane via semi dry western blotting. The membrane was probed with an α-FLAG antibody (Sigma; 1:1,000 in 1x TBS-T containing 3% BSA) at 4 °C overnight. After washing in 1x TBS-T, the membrane was incubated with a secondary HRP-conjugated anti-mouse antibody (Thermo Scientific; 1:5,000 in 1x TBS-T containing 1% BSA) at RT for 1 hour. Excessive antibody was removed by repeated wash steps in 1x TBS-T and the membrane was developed by Amersham™ ECL Select™ Western Blotting Detection Reagent Kit (Cytiva).

[2] = test system: outer membrane of Salmonella; assay: Outer membrane permeabilization (NPN fluorescence); assay type: cell-based, Salmonella enterica serovar Typhimurium strain SL1344; design: key to Outer-membrane permeation: -: Effect strength is represented by additional (+) signs.; Effect strength is represented by additional (+) signs.; ++: Effect strength is represented by additional (+) signs.; +++: Effect strength is represented by additional (+) signs; conditions: for Outer-membrane permeation: summary grade, ASO conjugated to the carrier peptide; for Outer membrane permeabilization, NPN fluorescence (in words): test compounds 10 µM final, added at 14 min, NPN 10 µM, 5 mM HEPES, 5 mM glucose pH 7.2, CTAB and Polymyxin B positive controls
Experimental: The experiments were performed by modifying previously published protocols ([48]–[50]). Salmonella (WT SL1344, JVS-1574) were grown overnight in 4 ml MHB medium at 37 °C (with shaking at 220 rpm). Then the culture was diluted 1:100 and grown until OD 0.5 (∼2×10^8 cfu/mL). This culture was harvested and washed two times with 5mM HEPES and further diluted to OD 0.2 in 5 mM HEPES supplemented with 5 mM Glucose (pH 7.2). These cells were then incubated with N-phenylnaphthylamine (NPN) (Sigma, USA) at a final concentration of 10 µM. 190 µl of NPN treated cells were transferred into 96-well back plates with transparent bottom and fluorescence (excitation = 350 nm, emission = 420 nm) was recorded for 60 min (reading was performed every minute) using a Synergy H1 plate reader (Biotek). On the fourteenth minute, 10 µl of the test compounds (10 µM final concentration) was added into the wells. CTAB (Sigma, USA) 200 µM or Polymyxin B (Sigma, USA) 10 µg/ml (final concentration of 0.5 µg/ml) were used as positive controls, while water was used as negative control. The fluorescence of the wells were monitored using the same settings as above. The experiment was performed three times and Figure 10 is based on a single representative experiment.

[3] = test system: Cy5 5'-labelled RNA, nucleotides -20 to +20 of acpP (target mRNA); assay: Microscale thermophoresis (MST) binding affinity; design: species or system Salmonella enterica; key to Binding affinity (in vitro): -: Effect strength is represented by additional (+) signs.; Effect strength is represented by additional (+) signs.; ++: Effect strength is represented by additional (+) signs.; +++: Effect strength is represented by additional (+) signs; conditions: unconjugated ASO; for Binding affinity (in vitro): summary grade
Experimental: For each binding experiment, Cy5 5’-labelled RNA (as described above) was diluted to 10 nM in Buffer A (50 mM Tris-HCl pH 7.6, 250 mM KCl, 5 mM MgCl2, 1 mM DTT, 5% glycerol supplemented with 0.05% Tween 20). A series of 16 tubes with different ASO dilutions (500 nM to 0.015 nM) were prepared in Buffer A. For measurements, each ASO dilution was mixed with one volume of labeled RNA, which led to a final concentration of 5.0 nM labeled RNA and 250 nM to 0.007 nM of ASOs. The reaction was mixed by pipetting and incubated for 30 min at RT in the dark. Capillary forces were used to load the samples into Monolith NT.115 Premium Capillaries; measurements were performed using a Monolith Pico instrument (NanoTemper Technologies Gmbh, Munich, Germany) at an ambient temperature of 25 °C. Instrument parameters were adjusted to 5% LED power, medium MST power, and MST on-time of 2.5 s. An initial fluorescence scan was performed across the capillaries to determine sample quality, which was followed by 16 thermophoresis measurements. […] Data of two independent measurements were analyzed for the ΔFnorm value determined by the MO Affinity Analysis software (NanoTemper Technologies Gmbh, Munich, Germany). The fitting for EC50 values was done using the Hill equation within the MO Affinity Analysis software. Data are presented as the mean EC50 values of two independent experiments.

Substance	AcpP protein reduction [1]	Outer-membrane permeation [2]	Binding affinity (in vitro) [3]	Binding affinity (EC50, nM) ([3]; MST, 5.0 nM labelled RNA, ASO 250 nM to 0.007 nM, 30 min RT, 25 °C, Hill fit, mean ± SD of two independent experiments)	AcpP protein level (in words) [1]	Outer membrane permeabilization, NPN fluorescence (in words) [2]
DNA-PTO: 10mer phosphorothioate-modified DNA antisense oligomer, sequence CTCATACTCT, targeting acpP (antisense dC*dT*dC*dA*dT*dA*dC*dT*dC*dT)	-	-	-	Could not be determined		
LNA: 10mer 2'-4'-locked RNA antisense oligomer, sequence CTCATACTCT, targeting acpP (all LNA, backbone and methylation of C not given here)	-	-	+++			
PMO: 10mer phosphorodiamidate morpholino antisense oligomer, sequence CTCATACTCT, targeting acpP (all phosphorodiamidate morpholino (PMO))	+	++	++		gradual depletion of AcpP, albeit less pronounced than PNA	this ability is retained
PNA: 10mer peptide nucleic acid antisense oligomer, sequence CTCATACTCT, targeting acpP (all peptide nucleic acid (PNA))	++	++	+++		depletion in AcpP levels can be observed from 60 min post treatment onwards	this ability is retained
RNA-F: 10mer 2'-fluorinated RNA antisense oligomer, sequence CTCATACTCT, targeting acpP (all 2'-fluoro, backbone and T or U not given here)	-	-	+			
RNA-MOE: 10mer 2'-methoxyethylated RNA antisense oligomer, sequence CTCATACTCT, targeting acpP (all 2'-MOE, backbone and methylation of C not given here)	-	-	+++			
RNA-OMe: 10mer 2'-methylated RNA antisense oligomer, sequence CTCATACTCT, targeting acpP (all 2'-O-methyl, backbone and T or U not given here)	-	-	++			
